Experimental data taken from ChEMBL document CHEMBL1201862, “PubChem BioAssay data set” (2004).
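Grown in 96-well plates, cells were treated for 48 hours with each compound at five concentrations. Insufficient inhibition: endpoint recorded as highest concentration tested. GI50 marks 50% less growth.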 Calls of active or inactive are those of the source. Rule as the data show it: active = GI50 up to about 1.1 µM and inactive = higher.

What was measured:
Test in all cases: NCI anticancer screen, dose series, 48 h
786-0 = system: 786-0
A498 = system: A498
A549 = system: A549
ACHN = system: ACHN
CAKI-1 = system: CAKI-1
CCRF-CEM = system: CCRF-CEM
COLO 205 = system: COLO 205
DU-145 = system: DU-145
EKVX = system: EKVX
HCC 2998 = system: HCC 2998
HCT-116 = system: HCT-116
HCT-15 = system: HCT-15
HL-60 = system: HL-60
HOP-62 = system: HOP-62
HOP-92 = system: HOP-92
HT-29 = system: HT-29
Hs-578T = system: Hs-578T
IGROV-1 = system: IGROV-1
K562 = system: K562
KM12 = system: KM12
LOX IMVI = system: LOX IMVI
M14 = system: M14
MCF7 = system: MCF7
MDA-MB-231 = system: MDA-MB-231
MDA-MB-435 = system: MDA-MB-435
MOLT-4 = system: MOLT-4
Malme-3M = system: Malme-3M
NCI-H226 = system: NCI-H226
NCI-H23 = system: NCI-H23
NCI-H460 = system: NCI-H460
NCI-H522 = system: NCI-H522
NCI/ADR-RES = system: NCI/ADR-RES
OVCAR-3 = system: OVCAR-3
OVCAR-4 = system: OVCAR-4
OVCAR-5 = system: OVCAR-5
OVCAR-8 = system: OVCAR-8
PC-3 = system: PC-3
RPMI-8226 = system: RPMI-8226
RXF 393 = system: RXF 393
SF-268 = system: SF-268
SF-295 = system: SF-295
SF-539 = system: SF-539
SK-MEL-28 = system: SK-MEL-28
SK-MEL-2 = system: SK-MEL-2
SK-MEL-5 = system: SK-MEL-5
SN12C = system: SN12C
SNB-19 = system: SNB-19
SR = system: SR
SW-620 = system: SW-620
T47D = system: T47D
TK-10 = system: TK-10
U-251 = system: U-251
UACC-257 = system: UACC-257
UACC-62 = system: UACC-62
UO-31 = system: UO-31
MDA-N = system: MDA-N
SK-OV-3 = system: SK-OV-3

CCOC(=O)c1c(N2CCCC2)ncn(C)c1=S
GI50 (786-0): > 100 µM (inactive) | GI50 (A498): > 100 µM (inactive) | GI50 (A549): > 100 µM (inactive) | GI50 (ACHN): > 100 µM (inactive) | GI50 (CAKI-1): > 100 µM (inactive) | GI50 (CCRF-CEM): > 100 µM (inactive) | GI50 (COLO 205): > 100 µM (inactive) | GI50 (DU-145): > 100 µM (inactive) | GI50 (EKVX): > 100 µM (inactive) | GI50 (HCC 2998): > 100 µM (inactive) | GI50 (HCT-116): > 100 µM (inactive) | GI50 (HCT-15): > 100000 nM | GI50 (HL-60): > 100 µM (inactive) | GI50 (HOP-62): > 100 µM (inactive) | GI50 (HOP-92): 93.3 µM (inactive) | GI50 (HT-29): > 100 µM (inactive) | GI50 (Hs-578T): > 100 µM (inactive) | GI50 (IGROV-1): > 100 µM (inactive) | GI50 (K562): > 100 µM (inactive) | GI50 (KM12): > 100 µM (inactive) | GI50 (LOX IMVI): > 100 µM (inactive) | GI50 (M14): > 100 µM (inactive) | GI50 (MCF7): > 100 µM (inactive) | GI50 (MDA-MB-231): > 100 µM (inactive) | GI50 (MDA-MB-435): > 100 µM (inactive) | GI50 (MOLT-4): > 100 µM (inactive) | GI50 (Malme-3M): > 100 µM (inactive) | GI50 (NCI-H226): > 100 µM (inactive) | GI50 (NCI-H23): > 100 µM (inactive) | GI50 (NCI-H460): > 100 µM (inactive) | GI50 (NCI-H522): > 100 µM (inactive) | GI50 (NCI/ADR-RES): > 100 µM (inactive) | GI50 (OVCAR-3): > 100 µM (inactive) | GI50 (OVCAR-4): > 100 µM (inactive) | GI50 (OVCAR-5): > 100 µM (inactive) | GI50 (OVCAR-8): > 100 µM (inactive) | GI50 (PC-3): > 100 µM (inactive) | GI50 (RPMI-8226): > 100 µM (inactive) | GI50 (RXF 393): > 100 µM (inactive) | GI50 (SF-268): > 100 µM (inactive) | GI50 (SF-295): > 100 µM (inactive) | GI50 (SF-539): > 100 µM (inactive) | GI50 (SK-MEL-28): > 100 µM (inactive) | GI50 (SK-MEL-2): > 100 µM (inactive) | GI50 (SK-MEL-5): > 100 µM (inactive) | GI50 (SN12C): > 100 µM (inactive) | GI50 (SNB-19): > 100 µM (inactive) | GI50 (SR): > 100 µM (inactive) | GI50 (SW-620): > 100 µM (inactive) | GI50 (T47D): > 100 µM (inactive) | GI50 (TK-10): > 100 µM (inactive) | GI50 (U-251): > 100 µM (inactive) | GI50 (UACC-257): > 100 µM (inactive) | GI50 (UACC-62): > 100 µM (inactive) | GI50 (UO-31): 41.6 µM (inactive)

CCCCCC(=O)N[C@@H](c1ccco1)[C@@H](O)C(=O)O[C@H]1C[C@@]2(O)[C@@H](OC(=O)c3ccccc3)[C@@H]3[C@]4(OC(C)=O)CO[C@@H]4C[C@H](O)[C@@]3(C)C(=O)[C@H](OC(C)=O)C(=C1C)C2(C)C
GI50 (ACHN): 0.0406 µM (active) | GI50 (CCRF-CEM): < 0.0025 µM (active) | GI50 (COLO 205): < 0.0025 µM (active) | GI50 (EKVX): > 25 µM (inactive) | GI50 (HCC 2998): < 0.0025 µM (active) | GI50 (HCT-116): < 0.0025 µM (active) | GI50 (HCT-15): 29.5 nM | GI50 (HOP-62): < 0.0025 µM (active) | GI50 (HOP-92): < 0.0025 µM (active) | GI50 (HT-29): < 0.0025 µM (active) | GI50 (Hs-578T): < 0.0025 µM (active) | GI50 (KM12): < 0.0025 µM (active) | GI50 (MCF7): < 0.0025 µM (active) | GI50 (MDA-MB-435): < 0.0025 µM (active) | GI50 (MDA-N): < 2.5 nM (active) | GI50 (MOLT-4): < 0.0025 µM (active) | GI50 (NCI-H23): < 0.0025 µM (active) | GI50 (NCI-H460): < 0.0025 µM (active) | GI50 (NCI-H522): < 0.0025 µM (active) | GI50 (NCI/ADR-RES): 1.75 µM (inactive) | GI50 (OVCAR-4): 4.32 µM (inactive) | GI50 (OVCAR-8): < 0.0025 µM (active) | GI50 (RPMI-8226): < 0.0025 µM (active) | GI50 (RXF 393): < 0.0025 µM (active) | GI50 (SF-268): < 0.0025 µM (active) | GI50 (SK-MEL-5): 0.025 µM (active) | GI50 (SK-OV-3): < 2.5 nM (active) | GI50 (SNB-19): < 0.0025 µM (active) | GI50 (SR): < 0.0025 µM (active) | GI50 (TK-10): 0.0908 µM (active) | GI50 (U-251): < 0.0025 µM (active) | GI50 (UO-31): 0.0575 µM (active)
